Read-outs that look alike come from different tables or passages of the source. Starred links: 1 amine or outer side, 2 acyl side, 3 side chain; linkers in the order of their positions; H or OH if unused. Non-standard residues stand in square brackets, D forms with d. Residues, ends and D or L forms follow the SMILES beside them. X2 = CC(CCN1CCOCC1)C(O)C(C(=O)[*:2])N(C)[*:1]; X1 = CCN(C(C(=O)[*:2])C(C)C)[*:1]; NMeL = CN[CH](CC(C)C)C(=O)O; NMeV = CN[CH](C(=O)O)C(C)C; NMeA = CN[CH](C)C(=O)O; Abu = CC[CH](N)C(=O)O
Key:
Calcineurin = Calcineurin (Homo sapiens, UniProt P62937+P63098+Q08209); assay: Calcineurin Phosphatase (CaN) Assay with Cyp A (+CypA); settings: read-out: Calcineurin Phosphatase (CaN) Assay (+CypA) IC50, in the presence of Cyp A
[1] = molecular target: Human recombinant cyclophilin A (Cyp A) (Homo sapiens, UniProt P62937); assay: Protease-free PPIase assay; settings: read-out: Protease-free PPIase Assay Ki;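 note: cis to trans isomerization of SUC-AAPF-pNA by 2 nM enzyme, read as absorbance at 330 nm over 300 s at 10 °C, catalytic rate corrected for uncatalyzed background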
[2] = Water Solubility Assay (measured in pH 7.8 buffer); assay type: physicochemical;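 note: precipitation onset detected as rise in absorbance at 650 nm across increasing concentrations, after shaking for 18 h, blank wells receiving DMSO only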
[3] = 35 mM HEPES pH 7.8, 1% DMSO, 25 °C, 18 h, read-out: Water Solubility Assay, concentration at which the compound remains in solution

Chain of Human recombinant cyclophilin A (Cyp A) (P62937 whole entry): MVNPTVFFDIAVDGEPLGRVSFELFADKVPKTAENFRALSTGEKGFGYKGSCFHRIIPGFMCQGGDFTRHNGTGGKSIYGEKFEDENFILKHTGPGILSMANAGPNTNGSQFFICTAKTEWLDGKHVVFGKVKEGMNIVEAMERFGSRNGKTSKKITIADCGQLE
Chain of Calcineurin (P63098 whole entry, other chains not shown): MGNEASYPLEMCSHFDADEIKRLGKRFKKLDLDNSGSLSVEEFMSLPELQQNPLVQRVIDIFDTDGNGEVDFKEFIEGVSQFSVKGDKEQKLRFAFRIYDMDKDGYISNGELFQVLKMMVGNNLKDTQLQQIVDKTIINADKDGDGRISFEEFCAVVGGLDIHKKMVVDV
Chain of Calcineurin (P62937 whole entry, other chains not shown): as the sequence (P62937 whole entry) above

| Compound | IC50 (Calcineurin; 1:1 complex with inhibitor) | Ki ([1]; cyclophilin A, 10 °C) | solubility at 18 h [2, 3] | IC50 (Calcineurin) | Ki ([1]; Cyclophilin A (Cyp A) inhibitory activity) | solubility at 18 h ([2]; pH 7.8 buffer, read-out: Water Solubility Assay) |
| --- | --- | --- | --- | --- | --- | --- |
| CC[C@H]1NC(=O)[C@@H]([C@H](O)[C@H](C)CCN2C[C@H]3CN(C)C[C@H]3C2)N(C)C(=O)[C@@H](C(C)C)N(C)C(=O)[C@@H](CC(C)C)N(C)C(=O)[C@@H](CC(C)C)N(C)C(=O)[C@H](C)NC(=O)[C@@H](C)NC(=O)[C@@H](CC(C)C)N(C)C(=O)[C@@H](C(C)C)NC(=O)[C@H](CC(C)C)N(C)C(=O)[C@@H](C)N(C)C1=O (relative stereo) [Compound O, [(3R,4R,5S)-4-Hydroxy-3-methyl-5-(methylamino)-1-(N-(3aR*,6aS*)-2-methyloctahydropyrrolo[3,4-c]pyrrolo)-hexanoic acid]^1[(R)-methyl-Sar]^3 cyclosporin A] | > 10000 nM | 8.2 nM | >100 µM | – | – | – |
| CCC1NC(=O)C(C(O)C(C)CCN2CCOCC2)N(C)C(=O)C(C(C)C)N(C)C(=O)C(CC(C)C)N(C)C(=O)C(CC(C)C)N(C)C(=O)C(C)NC(=O)C(C)NC(=O)C(CC(C)C)N(C)C(=O)C(C(C)C)NC(=O)C(C(C)C)N(CC)C(=O)C(C)N(C)C1=O [Compound EJ, [(3R,4R,5S)-4-Hydroxy-3-methyl-1-(morpholin-4-yl)-hexanoic acid]^1[(R)-methyl-Sar]^3[Ethyl-Val]^4 cyclosporin A] (cyclo([X1]V[NMeL]AA[NMeL][NMeL][NMeV][X2][Abu][NMeA]); configuration not given here) | – | – | – | > 10000 nM | 9 nM | >100 µM |
| CC[C@@H]1NC(=O)[C@H]([C@H](O)[C@H](C)CCCC(=O)N2C[C@H]3CN(C)C[C@H]3C2)N(C)C(=O)[C@H](C(C)C)N(C)C(=O)[C@H](CC(C)C)N(C)C(=O)[C@H](CC(C)C)N(C)C(=O)[C@@H](C)NC(=O)[C@H](C)NC(=O)[C@H](CC(C)C)N(C)C(=O)[C@H](C(C)C)NC(=O)[C@H](CC(C)C)N(C)C(=O)[C@@H](C)N(C)C1=O (relative stereo) [Compound ZZ, [(5R,6R,7S)-6-hydroxy-5-methyl-7-(methylamino)-1-(N-(3aR*,6aS*)-2-methyloctahydropyrrolo[3,4-c]pyrrolo)-1-oxo-octanoic acid]1[(R)-methyl-Sar]3 cyclosporin A] | > 10000 nM | 2.6 nM | >100 µM | – | – | – |
| CC[C@H]1NC(=O)[C@@H]([C@H](O)[C@H](C)CCN2CCOCC2)N(C)C(=O)[C@@H](C(C)C)N(C)C(=O)[C@@H](CC(C)C)N(C)C(=O)[C@@H](CC(C)C)N(C)C(=O)[C@H](C)NC(=O)[C@@H](C)NC(=O)[C@@H](CC(C)C)N(C)C(=O)[C@@H](C(C)C)NC(=O)[C@H](CC(C)C)N(C)C(=O)[C@@H](COCCN(CC)CC)N(C)C1=O [Compound S, [(3R,4R,5S)-4-Hydroxy-3-methyl-5-(methylamino)-1-N-morpholino-hexanoic acid]^1[(R)-2-diethylaminoethyloxymethyl-Sar]^3 cyclosporin A] | > 10000 nM | 10 nM | >100 µM | – | – | – |
| CC[C@H]1NC(=O)[C@@H]([C@H](O)[C@H](C)CCN2CCOCC2)N(C)C(=O)[C@@H](C(C)C)N(C)C(=O)[C@@H](CC(C)C)N(C)C(=O)[C@@H](CC(C)C)N(C)C(=O)[C@H](C)NC(=O)[C@@H](C)NC(=O)[C@@H](CC(C)C)N(C)C(=O)[C@@H](C(C)C)NC(=O)[C@H](CC(C)C)N(C)C(=O)[C@@H](CSCCN(CC)CC)N(C)C1=O [Compound AC, [(3R,4R,5S)-4-Hydroxy-3-methyl-5-(methylamino)-1-N-morpholino-hexanoic acid]^1[(S)-2-diethylaminoethylthiomethyl-Sar]^3 cyclosporin A] | > 10000 nM | 7.5 nM | >100 µM | – | – | – |

From US20160039880A1 (priority 2012, published 2016)
